Assay results reported in PubChem BioAssay AID1963426 (Molecular Pharmacology Branch, DTP, NCI, 2024).
pIC50: −log10 of the molar value.

System: 186277-243-T-J2-PDC complex spheroid growth, % test/control
Assay: Anticancer human tumor 186277-243-T-J2-PDC patient-derived colon adenocarcinoma cell line growth inhibition [Asc]
Conditions: for pIC50: curve of first compound; for viability, T/C: stronger effect = lower value
Protocol: Multicellular complex tumor spheroid response to apoptosis pathway targeting inhibitors Alrizomadlin, Pelcitoclax, and Dasminapant in combination with a variety of drugs and investigational agents in selected tumor cell lines
The MDM2 inhibitor alrizomadlin, the Bcl-2/Bcl-xL inhibitor pelcitoclax, and the IAPs inhibitor dasminapant were evaluated both individually and in combination with standard of care and investigational anticancer small molecules within a complex spheroid model of solid tumors. . Complex spheroids include a stromal component modeled by human endothelial cells (HUVEC) and fibroblasts modeled by human mesenchymal stem cells (MSCs). The concentration ranges selected for each drug and investigational agent were based upon clinically achievable concentrations if the clinical Cmax of the agent was known.
Compounds. The drugs and investigational agents: alrizomadlin (APG-115; NSC831270), pelcitoclax (APG-1252; NSC835773), dasminapant (APG-1387;NSC834197), TAK-243 (NSC785004), copanlisib (NSC809693), olaparib (NSC753686), talazoparib (NSC767125), cobimetinib (NSC 768068), eltanexor (KPT-8602, NSC 794443), abemaciclib (NSC 768073), sotorasib (NSC818433), adagrasib (NSC 831453), MRTX-1133 (NSC 836407), Iadademestat (ORY1001, NSC 806812), and RMC-4630 (NSC839698), were obtained from the NCI Developmental Therapeutics Program Chemical Repository. The FDA-approved anticancer drug set is available from the Developmental Therapeutics Program at https://dtp.cancer.gov/organization/dscb/obtaining/available plates.htm. […] The stock solutions were prepared in dimethyl sulfoxide (DMSO, Sigma-Aldrich, St. Louis, MO, cat. D2650) at 800-fold the tested concentration and stored at -70 degrees C prior to their use. All drugs and investigational agents were tested over a range starting from a high concentration at or near the clinical Cmax and decreasing in half-log increments. If the clinical Cmax for an agent had not been determined, the highest concentration tested was 10 microM.
The patient-derived cancer (PDC) cell lines include five colon adenocarcinomas: 186277-243-T-J2-PDC, 616215-338-R-J1-PDC, 439559-082-T-J2-PDC, 463943-066-T-J2-PDC, and 519858-162-T-J1-PDC; three pancreatic carcinomas: 323965-272-R-J2-PDC, 521955-158-R6-J3-PDC, and 521955-158-R2-J5-PDC; two uterine sarcomas: 327498-152-R-J2-PDC and 993429-296-R-J1-PDC; two rhabdomyosarcomas: 755483-174-R-J1-PDC and 772245-204-R-J1-PDC; two soft tissue sarcomas: 126254-015-R-J1-PDC and 494315-158-R-J1-PDC; two malignant fibrous histiocytomas: 317291-083-R-J1-PDC and 596521-263-R-J1-PDC; two breast carcinomas: 171881-019-R-J1-PDC and 885512-296-R-J2-PDC; and one ovarian carcinoma: 6556581-035-R-J-PDC were obtained from the NCI PDMR, (https://pdmr.cancer.gov). The established cell lines HSSY-2 synovial sarcoma (RRID:CVCL 8719), SYO-1 synovial sarcoma (RRID:CVCL_7146), MPNST malignant peripheral neural sheath tumor were obtained from the Sloan Kettering Institute. The following established cell lines were purchased from the American Type Culture Collection (ATCC, Manassas, VA), Sor the received from the NCI repository:, PANC-1 pancreatic carcinoma (CRL-1469, RRID:CVCL_0480), OVCAR-5 ovarian carcinoma (RRID:CVCL_1628), OVCAR-8 ovarian carcinoma (RRID:CVCL_1629), , MCF-7 breast carcinoma (CRL-12584, RRID:CVCL_0031), MDA-MB-231 breast carcinoma (CRL-12532, RRID:CVCL_0062), NCI-H1876 small cell lung carcinoma (CRL-5902, RRID:CVCL_1503), NCI-H510A small cell lung carcinoma (HTB-184, RRID:CVCL_1565), NCI-H1417 (CRL-5869, RRID:CVCL_1469), and NCI-H196 small cell lung carcinoma (CRL-5823, RRID:CVCL_1509). Dr. Peter Houghton (Greehey Children's Cancer Research Institute, University of Texas Health Science Center, San Antonio, TX) provided Rh-18 rhabdomyosarcoma (RRID:CVCL_1659). Pooled donor human umbilical vein endothelial cells (HUVEC, Lonza, cat. CC-2519) and human mesenchymal stem cells (hMSC, Lonza, cat. PT-2501) were purchased from Lonza (Walkersville, MD).
Cell Culture. […]

[1] = second compound 0.03 µM, first compound 0.00316 µM
[2] = second compound 0.03 µM, first compound 0.01 µM
[3] = second compound 0.03 µM, first compound 0.0316 µM
[4] = second compound 0.03 µM, first compound 0.1 µM
[5] = second compound 0.0949 µM, first compound 0.00316 µM
[6] = second compound 0.0949 µM, first compound 0.01 µM
[7] = second compound 0.0949 µM, first compound 0.0316 µM
[8] = second compound 0.0949 µM, first compound 0.1 µM
[9] = second compound 0.3 µM, first compound 0.00316 µM
[10] = second compound 0.3 µM, first compound 0.01 µM
[11] = second compound 0.3 µM, first compound 0.0316 µM
[12] = second compound 0.3 µM, first compound 0.1 µM
[13] = second compound 0.949 µM, first compound 0.00316 µM
[14] = second compound 0.949 µM, first compound 0.01 µM
[15] = second compound 0.949 µM, first compound 0.0316 µM
[16] = second compound 0.949 µM, first compound 0.1 µM
[17] = second compound 3 µM, first compound 0.00316 µM
[18] = second compound 3 µM, first compound 0.01 µM
[19] = second compound 3 µM, first compound 0.0316 µM
[20] = second compound 3 µM, first compound 0.1 µM
[21] = second compound 0.03 µM, first compound 0.316 µM
[22] = second compound 0.03 µM, first compound 1 µM
[23] = second compound 0.0949 µM, first compound 0.316 µM
[24] = second compound 0.0949 µM, first compound 1 µM
[25] = second compound 0.3 µM, first compound 0.316 µM
[26] = second compound 0.3 µM, first compound 1 µM
[27] = second compound 0.949 µM, first compound 0.316 µM
[28] = second compound 0.949 µM, first compound 1 µM
[29] = second compound 3 µM, first compound 0.316 µM
[30] = second compound 3 µM, first compound 1 µM
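Further: spheroids exposed to agents for 7 days.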
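Wherever viability, T/C is given: 100% = DMSO vehicle control wells.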

pIC50 (second compound 0.03 µM)	pIC50 (second compound 0.0949 µM)	pIC50 (second compound 0.3 µM)	pIC50 (second compound 0.949 µM)	pIC50 (second compound 3 µM)	Structure (SMILES)	viability, T/C [1]	viability, T/C [2]	viability, T/C [3]	viability, T/C [4]	viability, T/C [5]	viability, T/C [6]	viability, T/C [7]	viability, T/C [8]	viability, T/C [9]	viability, T/C [11]	viability, T/C [12]	viability, T/C [15]	viability, T/C [16]	viability, T/C [19]	viability, T/C [20]	other results
< 7.00	< 7.00	< 7.00	8.67	> 9.50	Cn1ncnc1[C@H]1c2n[nH]c(=O)c3cc(F)cc(c23)N[C@@H]1c1ccc(F)cc1 + CCN1C(C(=O)NC23CCC(C(=O)O)(CC2)CC3)C(c2cccc(Cl)c2F)C2(C(=O)Nc3cc(Cl)ccc32)C12CCCCC2	107%	91.3%	80.9%	87.2%	87.6%	77.5%	76.5%	65.8%	65.9%	63.1%	59.3%	42%	41.4%	22.9%	25.8%	viability, T/C (second compound 0.03 µM, first compound 0.000316 µM): 130%; viability, T/C (second compound 0.03 µM, first compound 0.001 µM): 116%; viability, T/C (second compound 0.0949 µM, first compound 0.000316 µM): 98.3%; viability, T/C (second compound 0.0949 µM, first compound 0.001 µM): 82.1%; viability, T/C (second compound 0.3 µM, first compound 0.000316 µM): 75%; viability, T/C (second compound 0.3 µM, first compound 0.001 µM): 69%; viability, T/C [10]: 63.6%; viability, T/C (second compound 0.949 µM, first compound 0.000316 µM): 52.4%; viability, T/C (second compound 0.949 µM, first compound 0.001 µM): 56.5%; viability, T/C [13]: 49.4%; viability, T/C [14]: 43%; viability, T/C (second compound 3 µM, first compound 0.000316 µM): 30.1%; viability, T/C (second compound 3 µM, first compound 0.001 µM): 32.3%; viability, T/C [17]: 31.9%; viability, T/C [18]: 26%
< 5.00	< 5.00	< 5.00	6.22	> 7.50	O=C(c1cc(Cc2n[nH]c(=O)c3ccccc23)ccc1F)N1CCN(C(=O)C2CC2)CC1 + CCN1C(C(=O)NC23CCC(C(=O)O)(CC2)CC3)C(c2cccc(Cl)c2F)C2(C(=O)Nc3cc(Cl)ccc32)C12CCCCC2	–	–	120%	135%	–	–	90%	95.1%	–	77.8%	90.8%	54.3%	51.7%	31.8%	33.5%	viability, T/C [21]: 102%; viability, T/C [22]: 99%; viability, T/C (second compound 0.03 µM, first compound 3.16 µM): 94.2%; viability, T/C (second compound 0.03 µM, first compound 10 µM): 82.4%; viability, T/C [23]: 93.9%; viability, T/C [24]: 85.6%; viability, T/C (second compound 0.0949 µM, first compound 3.16 µM): 91.6%; viability, T/C (second compound 0.0949 µM, first compound 10 µM): 79.4%; viability, T/C [25]: 72.1%; viability, T/C [26]: 67.2%; viability, T/C (second compound 0.3 µM, first compound 3.16 µM): 62.1%; viability, T/C (second compound 0.3 µM, first compound 10 µM): 60.8%; viability, T/C [27]: 54.6%; viability, T/C [28]: 45.7%; viability, T/C (second compound 0.949 µM, first compound 3.16 µM): 47%; viability, T/C (second compound 0.949 µM, first compound 10 µM): 40.9%; viability, T/C [29]: 29.9%; viability, T/C [30]: 32.4%; viability, T/C (second compound 3 µM, first compound 3.16 µM): 30.2%; viability, T/C (second compound 3 µM, first compound 10 µM): 26.5%
7.14	7.27	7.85	8.35	> 8.50	O=C(c1ccc(F)c(F)c1Nc1ccc(I)cc1F)N1CC(O)([C@@H]2CCCCN2)C1 + CCN1C(C(=O)NC23CCC(C(=O)O)(CC2)CC3)C(c2cccc(Cl)c2F)C2(C(=O)Nc3cc(Cl)ccc32)C12CCCCC2	119%	105%	96.8%	32.2%	90%	96%	75.8%	20%	66.6%	22.6%	5.9%	19%	5.17%	11.9%	4.93%	viability, T/C [21]: 6.54%; viability, T/C [22]: 3.48%; viability, T/C [23]: 3.92%; viability, T/C [24]: 1.51%; viability, T/C [10]: 61.9%; viability, T/C [25]: 1.93%; viability, T/C [26]: 1.43%; viability, T/C [13]: 52.2%; viability, T/C [14]: 45%; viability, T/C [27]: 4.44%; viability, T/C [28]: 2.55%; viability, T/C [17]: 31.5%; viability, T/C [18]: 26.7%; viability, T/C [29]: 3.83%; viability, T/C [30]: 3.31%
